Assay results published in publication PMC12114633, “α-Glucosidase Inhibition Mechanism and Anti-Hyperglycemic Effects of Flavonoids from Astragali Radix and Their Mixture Effects” (Pharmaceuticals, 2025).
Several values for one entry are separate records, joined by “and”; a condition that tells them apart may be missing. Equal values may be shown once.

Columns and labels:
[1] = biological target: T1, Saccharomyces cerevisiae α-glucosidase (Saccharomyces cerevisiae, UniProt P53341); experiment: biochemical; conditions: IC50, α-glucosidase 0.2 U/mL, 5 mM pNPG, PBS pH 6.8, 37 °C
T1 construct: purchased Shanghai Yuanye Biotechnology Co., Shanghai, China Lot No. M23HS178879 (catalogue number not given)
Experimental: (§1) The α-glucosidase inhibitory effects of flavonoids were evaluated as in a previous report with slight modifications (including changes in the concentrations of the enzyme, substrate, and Na2CO3). Briefly, 50 μL of phosphate-buffered saline (PBS, 0.1 M, pH 6.8), the test compound, and α-glucosidase (0.2 U/mL) were preincubated in a 96-well plate at 37 °C for 10 min. The reaction was then initiated by adding 50 μL of 5 mM pNPG as the substrate. Subsequently, the 96-well plate was incubated for an additional 30 min at 37 °C, then 50 μL of 0.2 M Na2CO3 was added to terminate the reaction. Absorbance was measured at under 405 nm.

α-glucosidase [2] = biological target: T2, α-glucosidase (Saccharomyces cerevisiae, UniProt P53341); experiment: Inhibitory kinetic analysis (Lineweaver–Burk plot); assay type: biochemical; conditions: Lineweaver–Burk plots, pNPG 0.31–20 mM
T2 construct: purchased Shanghai Yuanye Biotechnology Co., Shanghai, China Lot No. M23HS178879 (catalogue number not given)
Experimental: The type of inhibition was determined by using the kinetics curve and the Lineweaver–Burk plot. […] These compounds were incubated with α-glucosidase at 37 °C for 30 min. After incubation, various concentrations of pNPG (0.31–20 mM) were added, and absorbance was measured at 405 nm. The Lineweaver–Burk plot was obtained by plotting 1/[S] on the x-axis and 1/v on the y-axis, where [S] represents substrate concentration and v represents the reaction velocity.

α-glucosidase [3] = biological target: T2, α-glucosidase; experiment: CD spectroscopy, secondary structure of α-glucosidase (BeStSel); conditions: for β-turn: free enzyme 11.7; for β-sheet: free enzyme 28.8; for random coil: free enzyme 45.2; for α-helix: free enzyme 14.4
Experimental: CD spectra in the far-UV region (190–250 nm) were scanned by using a CD spectrometer (JASCO-1.5 Tokyo, Japan). […] The slit width was set to 1 nm, and the baseline was calibrated with PBS (phosphate buffered saline). CD spectra were averaged over three scans under a constant nitrogen flow, with the buffer signal subtracted. The results were analyzed using the BeStSel database (https://bestsel.elte.hu/index.php, accessed on 16 May 2025).

α-glucosidase [4] = biological target: T2, α-glucosidase; experiment: Mixture effects of flavonoid combinations on α-glucosidase; assay type: biochemical
Experimental: as §1
The inhibitory activity of the composition was evaluated using the same method described in Section 3.2. […] The combination index (CI, Formula (3)) was subsequently used to assess the interactions between the compounds [60].(2) Y=Bottom+Top−Bottom/1+10^^((LogIC50−X)×HillSlope)
In Formula (3), (D)j represents the concentration of component j in the mixture needed to achieve an effect of x, while (Dx)j denotes the concentration of component j required to produce the same effect when acting alone. Here, x refers to the inhibition rate produced by the composition, and n indicates the number of individual compounds in the composition.

normal C57BL/6J mice = experiment: Oral sucrose test, postprandial blood glucose; assay type: in vivo; conditions: for Blood glucose levels: 30 min after sucrose 4 g/kg, n = 8, in mmol/L (unit assumed); for Rate of blood glucose reduction: vs model group, 30 min after sucrose
From the text: Male C57BL/6J mice of SPF grade, aged 6–8 weeks and weighing 18–22 g, were obtained from the Experimental Animal Science Department of Peking University. The mice were housed in a controlled environment with a 12:12 light/dark cycle and a constant temperature. They were provided with standard pellet feed and given free access to drinking water. To ensure acclimatization, the mice were allowed to adjust to the diet and housing conditions for one week prior to the experiment. All animal experiments were performed in compliance with the relevant laws and institutional guidelines for the care and use of laboratory animals in China. The experiments were approved by the Laboratory Animal Management and Ethics Committee of Peking University (LA2021443). Additionally, the certification number for the laboratory animal personnel is 1120111300011.
The 16 flavonoids were subsequently evaluated for their potential antihyperglycemic effects by using the oral sucrose test, which is commonly used to evaluate intestinal α-glucosidase inhibition in vivo [62]. Normal C57BL/6J mice were randomly divided into model groups and the 16 flavonoid compound groups (n = 8 per group), respectively. The flavonoids at different concentrations were suspended in 0.5% sodium carboxymethyl cellulose (CMC-Na). […] Fifteen minutes after drug administration, the mice were given a sucrose solution (4 g/kg). Blood samples were collected from the tail vein at 30 min after sucrose loading, and blood glucose levels were measured using an Accu-Chek Performa glucometer (Roche Diagnostics, SN: 79508621393, Shanghai, China). The rate of blood glucose reduction was calculated using the following Formula (4):(4) The rate of blood glucose reduction%=the model blood glucose-the sample blood glucose/the model blood glucose×100%

[5] = molar ratio 10:1, α-glucosidase 4 μM
[6] = molar ratio 40:1, α-glucosidase 4 μM
[7] = molar ratio compound:α-glucosidase 10:1, α-glucosidase 4 μM
[8] = calculated from the dose–response curve
[9] = 20 mg/kg oral (acarbose, positive control of each experiment)
[10] = each compound alone at its IC15 concentration, Com1 = mixture of the four at IC15 (117 μM in total)

T1 sequence (P53341 whole entry): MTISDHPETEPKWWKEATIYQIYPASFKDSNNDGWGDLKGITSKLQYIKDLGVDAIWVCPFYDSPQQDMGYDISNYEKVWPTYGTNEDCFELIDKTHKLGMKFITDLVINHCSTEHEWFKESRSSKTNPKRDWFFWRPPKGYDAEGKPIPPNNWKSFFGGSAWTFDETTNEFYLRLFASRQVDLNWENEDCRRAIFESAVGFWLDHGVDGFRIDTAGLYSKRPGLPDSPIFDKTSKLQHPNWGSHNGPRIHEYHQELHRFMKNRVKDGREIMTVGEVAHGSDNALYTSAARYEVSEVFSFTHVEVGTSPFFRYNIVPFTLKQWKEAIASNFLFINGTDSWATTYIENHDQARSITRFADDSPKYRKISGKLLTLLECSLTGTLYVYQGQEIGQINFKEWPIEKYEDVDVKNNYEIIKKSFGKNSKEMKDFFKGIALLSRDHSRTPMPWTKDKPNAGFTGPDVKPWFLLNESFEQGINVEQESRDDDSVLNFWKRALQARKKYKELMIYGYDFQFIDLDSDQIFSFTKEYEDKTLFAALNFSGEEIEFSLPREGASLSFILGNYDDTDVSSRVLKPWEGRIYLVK
T2 sequence (P53341 whole entry): as above

| SMILES | IC50 [1] [µM] | type of inhibition on α-glucosidase (α-glucosidase [2]) | β-turn (α-glucosidase [3]; [5]) [%] | β-sheet (α-glucosidase [3]; [5]) [%] | random coil (α-glucosidase [3]; [5]) [%] | β-turn (α-glucosidase [3]; [6]) [%] | α-helix (α-glucosidase [3]; [6]) [%] | β-sheet (α-glucosidase [3]; [6]) [%] | random coil (α-glucosidase [3]; [6]) [%] | α-helix (α-glucosidase [3]; [7]) [%] | IC05 (α-glucosidase [4]; [8]) [µM] | Blood glucose levels (normal C57BL/6J mice; 10 mg/kg oral) | Rate of blood glucose reduction (normal C57BL/6J mice; 10 mg/kg oral) [%] | Blood glucose levels (normal C57BL/6J mice; 50 mg/kg oral) | Rate of blood glucose reduction (normal C57BL/6J mice; 50 mg/kg oral) [%] | Blood glucose levels (normal C57BL/6J mice; 25 mg/kg oral) | Rate of blood glucose reduction (normal C57BL/6J mice; 25 mg/kg oral) [%] | Blood glucose levels (normal C57BL/6J mice; 100 mg/kg oral) | Rate of blood glucose reduction (normal C57BL/6J mice; 100 mg/kg oral) [%] | also measured |
| --- | --- | --- | --- | --- | --- | --- | --- | --- | --- | --- | --- | --- | --- | --- | --- | --- | --- | --- | --- | --- |
| O=C1c2ccc(O)cc2OCC1c1ccc(O)cc1 (stereo not drawn) [C28, dihydrodaidzein] | 412 ± 11.4 | mixed-type inhibitors | 14.4 | 25.6 | 50.7 | 12.9 | 10.9 | 20.7 | 55.5 | 9.30 | 98.27 | 12.74 ± 0.75 | 12.61 | 11.39 ± 1.48 | 21.87 |  |  |  |  | Blood glucose levels (normal C57BL/6J mice; 2 mg/kg oral): 14.84 ± 0.62; Rate of blood glucose reduction (normal C57BL/6J mice; 2 mg/kg oral): -1.80% |
| O=C1C[C@@H](c2ccc(O)cc2)Oc2cc(O)cc(O)c21 [C5, naringenin] |  | mixed-type inhibitors | 12.8 | 20.6 | 53.3 | 13 | 15.3 | 25.3 | 46.5 | 13.2 | 26.47 |  |  |  |  | 13.23 ± 0.63 | 14.33 | 12.39 ± 1.03 | 19.76 | Blood glucose levels (normal C57BL/6J mice; 5 mg/kg oral): 14.56 ± 1.96; Rate of blood glucose reduction (normal C57BL/6J mice; 5 mg/kg oral): 5.67% |
| C[C@@H]1O[C@@H](OC[C@H]2O[C@@H](Oc3c(-c4ccc(O)c(O)c4)oc4cc(O)cc(O)c4c3=O)[C@H](O)[C@@H](O)[C@@H]2O)[C@H](O)[C@H](O)[C@H]1O [C6, rutin] | 211 ± 11.2 |  | 12.1 | 26.9 | 45.5 | 17.6 | 9.30 | 14.3 | 58.8 | 15.5 |  | 12.81 ± 1.23 | 11.49 | 11.83 ± 0.71 | 18.31 |  |  |  |  | Blood glucose levels (normal C57BL/6J mice; 2 mg/kg oral): 14.68 ± 1.00; Rate of blood glucose reduction (normal C57BL/6J mice; 2 mg/kg oral): -1.38% |
| O=c1c(O)c(-c2ccc(O)cc2)oc2cc(O)cc(O)c12 [C2, kaempferol] |  | mixed-type inhibitors | 12.5 | 25.3 | 48.2 | 13.3 | 9.70 | 23.9 | 53.1 | 14.1 |  | 12.68 ± 1.47 | 9.06 | 12.79 ± 0.81 | 8.25 |  |  | 11.88 ± 1.62 | 14.80 |  |
| C[C@H]1O[C@H](O[C@H]2[C@H](O)[C@@H](O)[C@@H](O[C@H]3[C@H](O)[C@@H](O)C(O)O[C@@H]3CO)O[C@@H]2CO)[C@H](O)[C@@H](O)[C@@H]1N[C@H]1C=C(CO)[C@@H](O)[C@H](O)[C@H]1O (stereo partly drawn) [acarbose, reference compound] |  |  |  |  |  |  |  |  |  |  |  |  |  |  |  |  |  |  |  | Blood glucose levels (normal C57BL/6J mice; [9]): 7.39 ± 0.70 and 7.38 ± 0.95 and 7.90 ± 0.56 and 8.09 ± 0.60 and 7.16 ± 0.52 and 7.98 ± 0.58; Rate of blood glucose reduction (normal C57BL/6J mice; [9]): 49.31% and 47.09% and 48.83% and 44.13% and 46.72% and 50.02% |
| O=c1c(-c2ccc(O)cc2)coc2cc(O)cc(O)c12 [C8, genistein] |  |  |  |  |  |  |  |  |  |  |  |  |  | 13.26 ± 0.72 | 9.01 | 13.91 ± 1.00 | 4.55 | 12.06 ± 0.82 | 17.24 |  |
| O=c1c(O[C@@H]2O[C@H](CO)[C@@H](O)[C@H](O)[C@H]2O)c(-c2ccc(O)cc2)oc2cc(O)cc(O)c12 [C7, astragalin] |  |  |  |  |  |  |  |  |  |  |  |  |  |  |  |  |  |  |  | effect on postprandial blood glucose (normal C57BL/6J mice; 30 min after the sucrose load, compared to the model group, C7 at 10, 50 or 250 mg/kg): no glucose-lowering effect |
| O=c1c(O[C@@H]2O[C@H](CO)[C@@H](O)[C@H](O)[C@H]2O)c(-c2ccc(O)c(O)c2)oc2cc(O)cc(O)c12 [C10, isoquercitrin] | 71.7 ± 7.62 | competitive inhibitor | 14.2 | 24.0 | 49.3 | 13.1 | 12.5 | 16.6 | 57.8 | 12.4 |  | 12.41 ± 2.07 | 7.66 | 10.91 ± 1.78 | 18.82 | 12.21 ± 2.08 | 9.15 |  |  | IC15 (concentration corresponding to a 15% inhibition rate) (α-glucosidase [4]; [8]): 40 µM; inhibition rate against α-glucosidase (α-glucosidase [4]; [10]): 14.93 ± 4.73% |
| O=c1c(O)c(-c2ccc(O)c(O)c2)oc2cc(O)cc(O)c12 [C1, quercetin] |  | mixed-type inhibitors | 13.1 | 23.6 | 49.1 | 12.5 | 11.1 | 27.9 | 48.5 | 14.0 | 0.82 | 14.46 ± 1.06 | 0.77 | 13.41 ± 0.41 | 7.98 |  |  | 12.26 ± 1.65 | 15.87 | inhibition rate against α-glucosidase (α-glucosidase [4]; each compound alone at its IC05 concentration, Com2 = mixture of the seven at IC05 (381.58 μM in total)): 4.70 ± 1.66%; inhibition rate against α-glucosidase (α-glucosidase [4]; [10]): 17.16 ± 0.75% |
